Measured values from patent publication US8729097B2, “Quinoline compounds as inhibitors of angiogenesis, human methionine aminopeptidase, and SIRT1, and methods of treating disorders” (The Johns Hopkins University, priority 2008, dated 2014).
Read-outs that look alike come from different tables or passages of the source.

Experiments:
[1] = system: HUVEC; assay: HUVEC proliferation, [3H]-thymidine incorporation assay; type: cell-based, human
Experimental: (§1) HCC1954 cells were grown in RPMI1640 containing 10% FBS. HUVEC were grown using the EGM-2 bullet kit (Cambrex) as per manufacturer's instructions. The cells were maintained in a humidified incubator adjusted to 5% CO2. For drug screening, 10 mM stock solutions of Johns Hopkins Drug Library were arrayed in 96-well plates and screened at a final concentration of 10 μM. The cell growth was determined using a [^3H]-thymidine incorporation assay. Cells (typically 5,000 cells/well) were seeded in 96-well plates containing 0.2 ml of growth media and allowed to adhere for 24 h. The cells were then treated with drugs for 24 h. Cells were pulsed with 1 μCi [^3H]-thymidine (MP Biomedicals, 6.7 Ci mmol^−1) for 8 h and harvested, upon trypsin treatment, onto glass fiber filters (Wallac, Turku, Finland), from which ^3H counts were determined using a Perkin Elmer MicroBeta plate reader.

[2] = system: acetylation of p53 (K382), α-tubulin and histone-H3; assay: Acetylation status of sirtuin substrates in HUVEC (Western blot); type: cell-based, human; conditions: HUVEC; for acetylation status of tubulin or histone-H3: 6 h or 20 h
Experimental: (§2) Cells were lysed by adding 1 volume of 2× Laemmli buffer and were then boiled for 5 min. The samples were separated by SDS-PAGE and transferred to nitrocellulose membrane (Bio-Rad). Proteins were detected using primary antibodies for p53 (Santa Cruz), met-14-3-3γ (Novus), p21 (Santa Cruz), Rb (Santa Cruz), MetAP2 (Hu, X. et al (2006) Proc. Natl. Acad. Sci. U.S.A. 103, 18148-18153), SirT1 (Santa Cruz), acetyl-p53-K382 (Abeam), acetyl-tubulin (Sigma), histone-H3 (Santa Cruz), acetyl-H3 (Santa Cruz) and α-tubulin (TU-02, Santa Cruz) followed by the incubation with horseradish peroxidase (HRP)-conjugated anti-mouse or anti-rabbit antibodies (Santa Cruz) and enhanced chemiluminescence (ECL, Amersham).

[3] = target: T1, hMetAP2 (Homo sapiens, UniProt P50579); assay: MetAP enzymatic assay, hMetAP2; type: biochemical
T1 construct: made in house

[4] = system: HFF; assay: HFF proliferation (selectivity); type: cell-based
[5] = target: T2, hMetAP1 (Homo sapiens, UniProt P53582); assay: MetAP enzymatic assay, hMetAP1; type: biochemical
T2 construct: made in house

[6] = system: HUVEC; assay: Senescence associated-β-galactosidase (SA-β-gal) staining in HUVEC; type: cell-based, human
Experimental: Cells in 6-well plates were washed with PBS and fixed with 3% paraformaldehyde. After washing with PBS, the cells were incubated for 24 h at 37° C. (without CO2, protected from light) in freshly prepared SA-β-gal staining solution containing 1 mg/ml 5-bromo-4-chloro-3-indolyl β-D-galactopyranoside (X-gal), 5 mM potassium ferrocyanide, 5 mM potassium ferricyanide, 150 mM NaCl, 2 mM MgCl2 and 40 mM citric acid, titrated with NaH2PO4 to pH 6.0. SA-β-gal solution was then removed and the cells were washed with PBS. The stained cells were observed under a microscope.

[7] = system: Saccharomyces cerevisiae strain BY4743; assay: Yeast growth assay (wild type, map1Δ, map2Δ); type: cell-based; conditions: drug on paper disc
From the text: Saccharomyces cerevisiae strain BY4743 (MATa/α his3Δ1/his3Δ1 leu2Δ0/leu2Δ0 lys2Δ0/LYS2) and its isogenic haploid derivatives for MetAP1 (map1Δ) and MetAP2 (map2Δ) deletion mutants were used for yeast growth assays. Drugs dissolved in DMSO were spotted onto sterile filter disks and dried before experiments. Exponentially growing yeast strains were mixed with top agar and plated on YPD (1% yeast extract/2% peptone/2% glucose) plates. The filter disks were then placed on the YPD plates containing yeasts and the incubation was continued for 48 h at 30° C.

[8] = system: p53 and Rb pathways in HUVECs; assay: Western blot of p53, p21 and Rb in HUVEC; type: cell-based, human
Experimental: as §2

[9] = system: N-terminal methionine processing of 14-3-3γ by hMetAP2; assay: N-terminal methionine processing of 14-3-3γ in HUVEC (Western blot); type: cell-based, human; conditions: 10 nM
Experimental: 14-3-3γ is known as a substrate of eukaryotic MetAPs and the inhibition of either isotype of MetAPs was reported to increase the N-terminal methionyl form of the protein.
Cells were lysed by adding 1 volume of 2× Laemmli buffer and were then boiled for 5 min. The samples were separated by SDS-PAGE and transferred to nitrocellulose membrane (Bio-Rad).

[10] = system: HUVEC; assay: Endothelial cell tube formation assay; type: cell-based, human; conditions: Matrigel; EX527 1 μM, TNP470 10 nM
Experimental: HUVEC were seeded on a 96-well plate (2×10^4 cells/well) coated with Matrigel. The cells were then incubated for 16˜18 h in a humidified 5% CO2 incubator at 37° C. The cells were washed carefully with PBS once and Calcein-AM solution in PBS was then added to a final concentration of 2 μM. After incubation for an additional 30 min, the cells were washed carefully with PBS and observed under a fluorescence microscope (485 nm excitation/520 nm emission). The tube formed was quantified using AngioQuant v1.33 (The MathWorks).

[11] = system: breast cancer cells as well as human umbilical vein endothelial cells (HUVECs); assay: Cell proliferation assay, breast cancer cells and HUVECs; type: cell-based
Experimental: Cell proliferation assay was performed using several different kinds of breast cancer cells as well as human umbilical vein endothelial cells (HUVECs). […].
as §1

[12] = Table 3, in the presence of Co^2+, read-out: hMetAP2 Co^2+ IC50
[13] = Table 3, in the presence of Mn^2+, read-out: hMetAP2 Mn^2+ IC50
[14] = Table 3, read-out: Selectivity HUVEC IC50
[15] = Table 3, in the presence of Co^2+, read-out: hMetAP1 Co^2+ IC50
[16] = Table 3, in the presence of Mn^2+, read-out: hMetAP1 Mn^2+ IC50
[17] = Table 2, in the presence of Co^2+, read-out: hMetAP2 Co^2+ IC50
[18] = Table 2, in the presence of Co^2+, read-out: hMetAP1 Co^2+ IC50
[19] = Table 2, in the presence of Mn^2+, read-out: hMetAP1 Mn^2+ IC50
[20] = hMetAP2 Co^2+ IC50, Table 2, in the presence of Co^2+
[21] = Homo sapiens, HUVEC, read-out: Selectivity HUVEC IC50
[22] = read-out: hMetAP1 Co^2+ IC50, Table 2, in the presence of Co^2+
[23] = Homo sapiens, HUVEC, Table 4, read-out: HUVEC IC50
[24] = 72 h, valproic acid 0.1 mM, TNP-470 20 nM

T1 sequence (P50579 whole entry): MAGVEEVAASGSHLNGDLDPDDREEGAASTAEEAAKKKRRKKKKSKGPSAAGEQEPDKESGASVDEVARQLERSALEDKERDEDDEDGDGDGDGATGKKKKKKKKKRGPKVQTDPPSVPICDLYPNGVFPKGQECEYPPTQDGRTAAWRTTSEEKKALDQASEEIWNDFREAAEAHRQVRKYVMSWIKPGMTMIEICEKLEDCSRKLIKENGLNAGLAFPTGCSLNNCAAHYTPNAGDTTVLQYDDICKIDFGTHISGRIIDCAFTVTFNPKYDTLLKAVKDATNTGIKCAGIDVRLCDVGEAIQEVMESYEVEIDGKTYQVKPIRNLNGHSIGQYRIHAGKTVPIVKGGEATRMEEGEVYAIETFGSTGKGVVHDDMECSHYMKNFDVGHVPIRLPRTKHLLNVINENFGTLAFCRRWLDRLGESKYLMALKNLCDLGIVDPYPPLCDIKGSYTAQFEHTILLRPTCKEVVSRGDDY

SMILES: CCOC(=O)COc1ccc([N+](=O)[O-])c2cccnc12 [Entry 5d, Ethyl 1-(5-Nitro-quinolin-8-yloxy)-acetate]
- IC50 ([1]; Table 4, read-out: HUVEC IC50): 7300 nM

SMILES: CC(/C=C/C(=O)NO)=C\[C@@H](C)C(=O)c1ccc(N(C)C)cc1 [TSA]
- acetylation status of tubulin or histone-H3 [2]: induced hyper-acetylation
- p53 acetylation ([2]; early time point): increased p53 acetylation

SMILES: O=C(Nc1ccccc1)Oc1ccc(Cl)c2cccnc12 [Entry 4e, 5-Chloro-8-quinolyl-N-phenylcarbamate]
- IC50 [3, 12]: 1900 nM
- IC50 [3, 13]: 30 nM
- IC50 [1, 14]: 2100 nM
- IC50 ([4]; Table 3): 8.8 µM
- IC50 [5, 15]: > 50 µM
- IC50 [5, 16]: 11.9 µM

SMILES: OCCN(CCO)Cc1cc(Cl)c2cccnc2c1O [Entry 2a, 5-Chloro-7-(N,N-bis(2-hydroxyethyl)aminomethyl)-8-hydroxy-quinoline]
- IC50 [3, 17]: > 50000 nM
- IC50 [5, 18]: > 50 µM
- IC50 [5, 19]: > 50 µM

SMILES: NC(=O)COc1ccc([N+](=O)[O-])c2cccnc12 [Entry 5e, 1-(5-Nitro-quinolin-8-yloxy)-acetamide]
- IC50 ([1]; Table 4, read-out: HUVEC IC50): 6300 nM

SMILES: O=S(=O)(O)c1ccc(O)c2ncccc12 [Entry 1d]
- IC50 [3, 20]: > 50000 nM
- IC50 [1, 21]: > 50000 nM
- IC50 ([4]; Homo sapiens, HFF, Table 2): > 50 µM

SMILES: Oc1c(C(Nc2nccs2)c2ccco2)cc(Cl)c2cccnc12 (stereo not shown) [Entry 2g, 5-Chloro-7-(1-(2-furyl)-1-(2-thiazolylamino)-methyl)-8-hydroxy-quinoline]
- IC50 [3, 17]: > 50000 nM
- IC50 ([3]; Table 2, in the presence of Mn^2+, read-out: hMetAP2 Mn^2+ IC50): 2800 nM
- melting point: 126 °C
- IC50 ([1]; Homo sapiens, HUVEC, Table 2, read-out: Selectivity HUVEC IC50): 2500 nM
- IC50 ([4]; Homo sapiens, HFF, Table 2): 13.5 µM
- IC50 [5, 18]: > 50 µM
- IC50 [5, 19]: > 50 µM

SMILES: O=C(Nc1cc(Cl)cc(Cl)c1)Oc1ccc(Cl)c2cccnc12 [Entry 4c, 5-Chloro-8-quinolyl-N-(3,5-dichlorophenyl)-carbamate]
- IC50 [3, 12]: 2200 nM
- IC50 [3, 13]: 70 nM
- IC50 [1, 14]: 1200 nM
- IC50 ([4]; Table 3): 8 µM
- IC50 [5, 15]: > 50 µM
- IC50 [5, 16]: 12.6 µM

SMILES: O=C(Nc1ccc(F)cc1)Oc1c(Cl)cc(Cl)c2cccnc12 [Entry 4f, 5,7-Dichloro-8-quinolyl-N-(4-fluorophenyl)-carbamate]
- IC50 [3, 12]: > 50000 nM
- IC50 [3, 13]: 3100 nM
- IC50 ([4]; Table 3): 37 µM
- IC50 [5, 15]: > 50 µM
- IC50 [5, 16]: > 50 µM

SMILES: Oc1cccc2cccnc12 [Entry 1a]
- IC50 [3, 20]: > 50000 nM
- IC50 ([3]; hMetAP2 Mn^2+ IC50, Table 2, in the presence of Mn^2+): 2000 nM
- IC50 [1, 21]: 6200 nM
- IC50 ([4]; Homo sapiens, HFF, Table 2): 6.6 µM
- IC50 [5, 22]: > 50 µM

SMILES: Cc1ccc2c([N+](=O)[O-])cc([N+](=O)[O-])c(O)c2n1 [Entry 5b, 2-Methyl-5,7-dinitro-8-hydroxy-quinoline]
- IC50 [1, 23]: 17300 nM

SMILES: O=C(Nc1ccccc1)Oc1c(Cl)cc(Cl)c2cccnc12 [Entry 4d, 5,7-Dichloro-8-quinolyl-N-phenylcarbamate]
- IC50 [3, 12]: > 50000 nM
- IC50 [3, 13]: 1600 nM
- IC50 ([4]; Table 3): 15.3 µM
- IC50 [5, 15]: > 50 µM
- IC50 [5, 16]: > 50 µM

SMILES: O=C(Nc1cc(Cl)cc(Cl)c1)Oc1c(Cl)cc(Cl)c2cccnc12 [Entry 4b, 5,7-Dichloro-8-quinolyl-N-(3,5-dichlorophenyl)-carbamate]
- IC50 [3, 12]: > 50000 nM
- IC50 [3, 13]: 900 nM
- IC50 [1, 14]: 110 nM
- IC50 ([4]; Table 3): 3 µM
- IC50 [5, 15]: > 50 µM
- IC50 [5, 16]: > 50 µM

SMILES: CO[C@@H]1[C@H](OC(=O)NC(=O)CCl)CC[C@]2(CO2)[C@H]1[C@@]1(C)O[C@@H]1CC=C(C)C [TNP-470]
- premature senescence in HUVEC [6, 24]: did not induce premature senescence
- premature senescence in HUVEC ([6]; 5 days, single compound or drug combination): did not
- growth of MetAP-1 deletion mutant (map1Δ) ([7]; map1Δ): significantly inhibited
- growth of MetAP-2 deletion mutant ([7]; map2Δ): did not affect the growth
- growth of wild-type yeast ([7]; wild type): did not inhibit the yeast growth
- Rb hyperphosphorylation ([8]; 8% SDS-PAGE): inhibited its hyperphosphorylation
- total amount of Rb protein ([8]; 12% SDS-PAGE): increased the total amount of Rb protein
- processing of 14-3-3γ by hMetAP2 [9]: completely blocked
- HUVEC tube formation [10]: did not inhibit tube formation
- endothelial selectivity over other types of cancer cell lines [11]: around 1,000 fold

SMILES: CC(C)(C)OC(=O)Oc1ccc([N+](=O)[O-])c2cccnc12 [Entry 5c, 5-Nitro-8-tert-butoxycarbonyloxyquinoline]
- IC50 [1, 23]: 290 nM

SMILES: CC(NC(=O)c1ccccc1/N=C/c1c(O)ccc2ccccc12)c1ccccc1 (stereo not shown) [sirtinol]
- acetylation status of tubulin or histone-H3 [2]: induced hyper-acetylation

SMILES: CCCC(CCC)C(=O)O [valproic acid]
- premature senescence in HUVEC [6, 24]: induced premature senescence
- reversibility of senescence ([6]; 72 h treatment, then fresh media for an additional 48 h): reversed their senescence state

SMILES: O=C(NCCCl)Oc1ccc(Cl)c2cccnc12 [Entry 4h, 5-Chloro-8-quinolyl-N-(2-chloroethyl)-carbamate]
- IC50 [1, 14]: 2300 nM
- IC50 ([4]; Table 3): 8.4 µM

SMILES: O=C(Nc1cc(F)cc(F)c1)Oc1ccc(Cl)c2cccnc12 [Entry 4g, 5-Chloro-8-quinolyl-N-(3,5-difluorophenyl)-carbamate]
- IC50 [3, 12]: 45700 nM
- IC50 [3, 13]: 1800 nM
- IC50 ([4]; Table 3): 16.1 µM
- IC50 [5, 15]: > 50 µM
- IC50 [5, 16]: > 50 µM

SMILES: Oc1c(C(c2ccccc2)N2CCOCC2)cc(Cl)c2cccnc12 (stereo not shown) [Entry 2f, 5-Chloro-7-(1-phenyl-1-(N-morpholino)-methyl)-8-hydroxy-quinoline]
- melting point: 89 °C

SMILES: C=CCOc1ccc(Cl)c2cccnc12 [Entry 3a, 8-Allyloxy-5-chloroquinoline]
- IC50 ([3]; read-out: hMetAP2 Co^2+ IC50, Table 2, in the presence of Co^2+): > 50000 nM
- IC50 [5, 22]: > 50 µM

SMILES: O=C(NCCCl)Oc1c(Cl)cc(Cl)c2cccnc12 [Entry 4i, 5,7-Dichloro-8-quinolyl-N-(2-chloroethyl)-carbamate]
- IC50 [1, 14]: 2400 nM
- IC50 ([4]; Table 3): 11.1 µM
- IC50 [5, 15]: > 50 µM
- IC50 [5, 16]: > 50 µM
